In US20250326771A1, “PIPERAZINE DERIVATIVES USEFUL IN HIV THERAPY” (VIIV HEALTHCARE COMPANY, priority 2022, published 2025):
pIC50: −log10 of the molar value.

Key:
[1] = tested on: Jurkat HIV-luciferase clones; assay: Jurkat latency reversal assay; assay type: cell-based; settings: Homo sapiens, 48 h; Jurkat latency reversal assay potency; read-out: Jurkat pEC50 (converted)
Procedure, shortened: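 Pooled Jurkat clones C16, 115 and N6, each carrying one or two integrated HIV-luciferase proviruses and kept in 500 nM EFV, were exposed to 3-fold, 14-point compound titrations in duplicate (10 μM top, 0.5% DMSO) for 48 h at 37° C. Luciferase luminescence was fitted by four-parameter logistic regression for EC50 and maximal percent activation versus vehicle.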

cIAP1-BIR3 = cIAP1-BIR3 (Homo sapiens (Human), UniProt Q13490); assay: BIR binding assay (FRET competition), cIAP1 BIR3; settings: for cIAP1 BIR3 vs BIR2 separation window: fold separation (FS) for cIAP1
Sequence of cIAP1-BIR3 (Q13490 253-363): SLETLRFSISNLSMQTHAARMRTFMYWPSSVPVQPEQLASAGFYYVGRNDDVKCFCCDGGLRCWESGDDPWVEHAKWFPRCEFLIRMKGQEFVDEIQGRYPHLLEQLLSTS
Procedure, shortened: (§1)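 Compounds tested as 15-point, 3-fold series displacing 200 nM AlexaFluor647-labelled SMAC peptide from His-tagged BIR domain (cIAP1-BIR3 50 nM; cIAP1-BIR2 and cIAP2-BIR2 325 nM; XIAP-BIR3 100 nM), pH 7.4, 60 min. Eu-W1024 (2 nM) added 30 min; emission ratio fitted for IC50.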

cIAP1-BIR2 = cIAP1-BIR2 (Homo sapiens (Human), UniProt Q13490); assay: BIR binding assay (FRET competition), cIAP1 BIR2
Sequence of cIAP1-BIR2 (Q13490 173-257): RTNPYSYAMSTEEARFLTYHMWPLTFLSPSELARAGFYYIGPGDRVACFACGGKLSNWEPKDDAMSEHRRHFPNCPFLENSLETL
Procedure, shortened: as §1

cIAP2-BIR3 = cIAP2-BIR3 (Homo sapiens (Human), UniProt Q13489); assay: BIR binding assay (FRET competition), cIAP2 BIR3; settings: for cIAP2 BIR3 vs BIR2 separation window: fold separation (FS) for cIAP2
Sequence of cIAP2-BIR3 (Q13489 238-349): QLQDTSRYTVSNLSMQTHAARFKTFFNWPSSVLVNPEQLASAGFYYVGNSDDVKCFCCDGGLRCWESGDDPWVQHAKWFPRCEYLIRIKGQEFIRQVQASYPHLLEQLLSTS

cIAP2-BIR2 = cIAP2-BIR2 (Homo sapiens (Human), UniProt Q13489); assay: BIR binding assay (FRET competition), cIAP2 BIR2
Sequence of cIAP2-BIR2 (Q13489 158-242): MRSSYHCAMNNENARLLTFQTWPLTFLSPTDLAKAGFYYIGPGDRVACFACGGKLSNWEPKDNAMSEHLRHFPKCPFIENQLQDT
Procedure, shortened: as §1

XIAP-BIR3 = XIAP-BIR3 (Homo sapiens (Human), UniProt P98170); assay: BIR binding assay (FRET competition), XIAP BIR3; settings: for XIAP BIR3 vs BIR2 separation window: fold separation (FS) for XIAP
Sequence of XIAP-BIR3 (P98170 241-356): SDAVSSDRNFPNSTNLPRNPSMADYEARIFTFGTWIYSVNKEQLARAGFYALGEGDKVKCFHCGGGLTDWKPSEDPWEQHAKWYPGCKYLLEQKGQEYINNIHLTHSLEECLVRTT
Procedure, shortened: as §1

XIAP-BIR2 = XIAP-BIR2 (Homo sapiens (Human), UniProt P98170); assay: BIR binding assay (FRET competition), XIAP BIR2; settings: FRET competition; read-out: XIAP BIR2 (pIC50) (converted)
Sequence of XIAP-BIR2 (P98170 124-240): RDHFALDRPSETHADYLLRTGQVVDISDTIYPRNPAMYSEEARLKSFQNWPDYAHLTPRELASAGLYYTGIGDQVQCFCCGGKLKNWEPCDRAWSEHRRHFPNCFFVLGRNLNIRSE
Description: The BIR domain binding assays are FRET based competition assays that utilize His-tagged versions of each of the BIR2 and BIR3 domains from cIAP1, cIAP2, and XIAP (each domain assayed separately) each at a custom optimal concentration and a probe, 200 nM SMAC/DIABLO peptide AVPIAQKSE labelled with AlexaFluor647 (part #crb 1110326h, Discovery Peptides). The assay is conducted in 50 mM HEPES, […], 1 mM CHAPS, 5% Glycerol, 1 mM DTT, in dI water with a final pH of 7.4 and final volume of 20 uL. Final protein domain concentrations are: 50 nM cIAP1-BIR3 (Part #APT-11-370 Reaction Biology), 100 nM XIAP-BIR3 (Part #APT-11-351 Reaction Biology), 200 nM XIAP-BIR2 (Part #APT-11-470 Reaction Biology), 325 nM cIAP2-BIR2 (Part #APT-11-489 Reaction Biology), 50 nM cIAP2-BIR3 (Part #APT-11-372 Reaction Biology), 325 nM cIAP1-BIR2 (Part #APT-11-487 Reaction Biology). Compounds were plated using a HP Tecan D300 printer in a final total volume of 202 nl and DMSO concentration normalized across the 15-point, 3-fold dilution series. Peptide and probe were prepared at 2× relative to the concentrations above in binding buffer, 10 uL added to the prepared compound plates, and incubated for 60 minutes. LANCE Eu-W1024 (part #AD0401 Perkin Elmer #, vendor) was prepared at 2× concentration in binding buffer for final concentration of 2 nM, 10 uL added to each well, and plates incubated for 30 minutes. Plates were read on an ENVISION multifunction plate reader with […] laser excitation to obtain the 615 nm/665 nm emission ratio as indicative of probe:protein proximity. Data was analyzed using GraphPad PRISM and curves fit using log(inhibitor) vs. response—Variable slope (four […] method to obtain IC50 and pIC50 values.

| Structure (SMILES) | EC50 [1] | pIC50 (cIAP1-BIR3) | cIAP1 BIR3 vs BIR2 separation window (cIAP1-BIR3) | pIC50 (cIAP1-BIR2) | pIC50 (cIAP2-BIR3) | cIAP2 BIR3 vs BIR2 separation window (cIAP2-BIR3) | pIC50 (cIAP2-BIR2) | pIC50 (XIAP-BIR3) | XIAP BIR3 vs BIR2 separation window (XIAP-BIR3) | IC50 (XIAP-BIR2) |
| --- | --- | --- | --- | --- | --- | --- | --- | --- | --- | --- |
| C[C@@H]1CN(CC(=O)N2CC(C)(C)c3[nH]c(=O)c(Cc4ccc(F)cc4)cc32)[C@@H](CN2CCO[C@H](C(=O)NCC3CCN(C(=O)[C@@H]4CN(C[C@H]5CN[C@H](C)CN5CC(=O)N5CC(C)(C)c6[nH]c(=O)c(Cc7ccc(F)cc7)cc65)CCO4)CC3)C2)CN1 [Compound 133, (S)-4-(((2R,5R)-1-(2-(6-(4-fluorobenzyl)-3,3-dimethyl-5-oxo-2,3,4,5-tetrahydro-1H-pyrrolo[3,2-b]pyridin-1-yl)-2-oxoethyl)-5-methylpiperazin-2-yl)methyl)-N-((1-((S)-4-(((2R,5R)-1-(2-(6-(4-fluorobenzyl)-3,3-dimethyl-5-oxo-2,3,4,5-tetrahydro-1H-pyrrolo[3,2-b]pyridin-1-yl)-2-oxoethyl)-5-methylpiperazin-2-yl)methyl)morpholine-2-carbonyl)piperidin-4-yl)methyl)morpholine-2-carboxamide] | 63.1 to 316 nM | 6.30 to 7.50 | ++ (1,000>FS>100) | 5.50 to 6.00 | 7.80 to 8.10 | +++ (10,000>FS>1,000) | 5.00 to 5.50 | 7.50 to 7.80 | ++++ (FS>10,000) | 10000 to 51300 nM |
| C[C@@H]1CN(CC(=O)N2CC(C)(C)c3[nH]c(=O)c(Cc4ccc(F)cc4)cc32)[C@@H](CN2CCO[C@H](C(=O)NCCN3CCN(C(=O)[C@@H]4CN(C[C@H]5CN[C@H](C)CN5CC(=O)N5CC(C)(C)c6[nH]c(=O)c(Cc7ccc(F)cc7)cc65)CCO4)CC3)C2)CN1 [Compound 134, (S)-4-(((2R,5R)-1-(2-(6-(4-fluorobenzyl)-3,3-dimethyl-5-oxo-2,3,4,5-tetrahydro-1H-pyrrolo[3,2-b]pyridin-1-yl)-2-oxoethyl)-5-methylpiperazin-2-yl)methyl)-N-(2-(4-((S)-4-(((2R,5R)-1-(2-(6-(4-fluorobenzyl)-3,3-dimethyl-5-oxo-2,3,4,5-tetrahydro-1H-pyrrolo[3,2-b]pyridin-1-yl)-2-oxoethyl)-5-methylpiperazin-2-yl)methyl)morpholine-2-carbonyl)piperazin-1-yl)ethyl)morpholine-2-carboxamide] | 12.6 to 63.1 nM | 7.50 to 7.80 | ++ (1,000>FS>100) | 5.50 to 6.00 | 7.80 to 8.10 | +++ (10,000>FS>1,000) | 5.50 to 6.00 | 6.30 to 7.50 | +++ (10,000>FS>1,000) | 10000 to 51300 nM |
| C[C@@H]1CN(CC(=O)N2CC(C)(C)c3[nH]c(=O)c(Cc4ccc(F)cc4)cc32)[C@@H](CN2CCO[C@H](C(=O)NCCCN(C)C(=O)[C@@H]3CN(C[C@H]4CN[C@H](C)CN4CC(=O)N4CC(C)(C)c5[nH]c(=O)c(Cc6ccc(F)cc6)cc54)CCO3)C2)CN1 [Compound 135, (S)-4-(((2R,5R)-1-(2-(6-(4-fluorobenzyl)-3,3-dimethyl-5-oxo-2,3,4,5-tetrahydro-1H-pyrrolo[3,2-b]pyridin-1-yl)-2-oxoethyl)-5-methylpiperazin-2-yl)methyl)-N-(3-((S)-4-(((2R,5R)-1-(2-(6-(4-fluorobenzyl)-3,3-dimethyl-5-oxo-2,3,4,5-tetrahydro-1H-pyrrolo[3,2-b]pyridin-1-yl)-2-oxoethyl)-5-methylpiperazin-2-yl)methyl)morpholine-2-carboxamido)propyl)-N-methylmorpholine-2-carboxamide] | 63.1 to 316 nM | 7.50 to 7.80 | +++ (10,000>FS>1,000) | 5.00 to 5.50 | 7.80 to 8.10 | +++ (10,000>FS>1,000) | 5.00 to 5.50 | 7.50 to 7.80 | ++++ (FS>10,000) | 10000 to 51300 nM |
| C[C@@H]1CN(CC(=O)N2CC(C)(C)c3[nH]c(=O)c(Cc4ccc(F)cc4)cc32)[C@@H](CN2CCO[C@H](C(=O)NCCCCCNC(=O)[C@@H]3CN(C[C@H]4CN[C@H](C)CN4CC(=O)N4CC(C)(C)c5[nH]c(=O)c(Cc6ccc(F)cc6)cc54)CCO3)C2)CN1 [Compound 136, (2S,2′S)-N,N′-(pentane-1,5-diyl)bis(4-(((2R,5R)-1-(2-(6-(4-fluorobenzyl)-3,3-dimethyl-5-oxo-2,3,4,5-tetrahydro-1H-pyrrolo[3,2-b]pyridin-1-yl)-2-oxoethyl)-5-methylpiperazin-2-yl)methyl)morpholine-2-carboxamide)] | 63.1 to 316 nM | 7.80 to 8.10 | +++ (10,000>FS>1,000) | 5.50 to 6.00 | 7.80 to 8.10 | +++ (10,000>FS>1,000) | 5.50 to 6.00 | 7.50 to 7.80 | ++++ (FS>10,000) | 10000 to 51300 nM |
| C[C@@H]1CN(CC(=O)N2CC(C)(C)c3[nH]c(=O)c(Cc4ccc(F)cc4)cc32)[C@@H](CN2CCO[C@H](C(=O)NCC(O)CNC(=O)[C@@H]3CN(C[C@H]4CN[C@H](C)CN4CC(=O)N4CC(C)(C)c5[nH]c(=O)c(Cc6ccc(F)cc6)cc54)CCO3)C2)CN1 [Compound 137, (2S,2′S)-N,N′-(2-hydroxypropane-1,3-diyl)bis(4-(((2R,5R)-1-(2-(6-(4-fluorobenzyl)-3,3-dimethyl-5-oxo-2,3,4,5-tetrahydro-1H-pyrrolo[3,2-b]pyridin-1-yl)-2-oxoethyl)-5-methylpiperazin-2-yl)methyl)morpholine-2-carboxamide)] | 63.1 to 316 nM | 7.80 to 8.10 | +++ (10,000>FS>1,000) | 5.50 to 6.00 | 7.80 to 8.10 | +++ (10,000>FS>1,000) | 5.50 to 6.00 | 7.50 to 7.80 | ++++ (FS>10,000) | 10000 to 51300 nM |
| C[C@@H]1CN(CC(=O)N2CC(C)(C)c3[nH]c(=O)c(Cc4ccc(F)cc4)cc32)[C@@H](CN2CCO[C@H](C(=O)NCCOCCNC(=O)[C@@H]3CN(C[C@H]4CN[C@H](C)CN4CC(=O)N4CC(C)(C)c5[nH]c(=O)c(Cc6ccc(F)cc6)cc54)CCO3)C2)CN1 [Compound 138, (2S,2′S)-N,N′-(oxybis(ethane-2,1-diyl))bis(4-(((2R,5R)-1-(2-(6-(4-fluorobenzyl)-3,3-dimethyl-5-oxo-2,3,4,5-tetrahydro-1H-pyrrolo[3,2-b]pyridin-1-yl)-2-oxoethyl)-5-methylpiperazin-2-yl)methyl)morpholine-2-carboxamide)] | 63.1 to 316 nM | 8.10 to 8.86 | +++ (10,000>FS>1,000) | 5.50 to 6.00 | 8.10 to 8.86 | +++ (10,000>FS>1,000) | 5.50 to 6.00 | 7.80 to 8.10 | ++++ (FS>10,000) | 10000 to 51300 nM |
| C[C@@H]1CN(CC(=O)N2CC(C)(C)c3[nH]c(=O)c(Cc4ccc(F)cc4)cc32)[C@@H](CN2CCO[C@H](C(=O)NCC(C)(C)CNC(=O)[C@@H]3CN(C[C@H]4CN[C@H](C)CN4CC(=O)N4CC(C)(C)c5[nH]c(=O)c(Cc6ccc(F)cc6)cc54)CCO3)C2)CN1 [Compound 139, (2S,2′S)-N,N′-(2,2-dimethylpropane-1,3-diyl)bis(4-(((2R,5R)-1-(2-(6-(4-fluorobenzyl)-3,3-dimethyl-5-oxo-2,3,4,5-tetrahydro-1H-pyrrolo[3,2-b]pyridin-1-yl)-2-oxoethyl)-5-methylpiperazin-2-yl)methyl)morpholine-2-carboxamide)] | 63.1 to 316 nM | 7.80 to 8.10 | +++ (10,000>FS>1,000) | 5.50 to 6.00 | 7.80 to 8.10 | +++ (10,000>FS>1,000) | 5.50 to 6.00 | 6.30 to 7.50 | +++ (10,000>FS>1,000) | 10000 to 51300 nM |
